# Laboratory results as given in patent US9868757B2, “5-β, 14-β-androstane derivatives useful for the treatment of proteinuria, glomerulosclerosis and renal failure” (SIGMA-TAU INDUSTRIE FARMACEUTICHE RIUNITE S.p.A., priority 2009, dated 2018).
# Where “and” joins values, the source holds several entries; their conditions need not be identical. Identical values can stand only once.
# Assays:
# Podocytes from NB rats = test: Podocyte protein quantification by Western blotting in cultured podocytes from NB rats; assay type: cell-based, rat
# Source text: To test the activity of the compound of the invention for the prevention of loss of podocyte proteins, congenic NB rats carrying the beta adducin mutation (Tripodi G. et at Effect of Addl gene transfer on blood pressure in reciprocal congenic strains of Milan rats. BBRC 2004; 324: 562-568) were used. Said NB rats are non-hypertensive rats and are available at Prassis Research Institute, Sigma-tau, Italy.
# NB rats of 7 to 10 days of age were used for podocyte isolation and culture. Podocytes from NB rats were incubated for 5 days without (NB control, n=4) and with Rostafuroxin at 10^−9M (NB n=5). Podocyte proteins were quantified at the end of the 5 days of incubation by Western blotting. The quantification by Western blot was replicated two to three times for each podocyte marker. Tables IA and IB show the final number of podocyte samples analyzed for each condition, as mean values of the replicates (NB control, n=4; NB+Rostafuroxin, n=5). The densitometric analysis was quantified as optical density, in arbitrary units.
# Glomeruli were isolated from NB kidneys by sieving and further manually purification. Glomeruli were then seeded in culture flasks (Corning, Sigma-Aldrich, Milan, Italy), pre-coated with collagen type IV (Sigma-Aldrich) at 37° C. in 5% CO2 atmosphere. On days 4 to 5, podocyte growth started and, by day 8, glomeruli were detached using trypsin-EDTA. […] Podocyte protein quantification (10 μg protein/lane) was performed by Western blotting technique by using specific antibodies against nephrin, podocin, ZO-1, adducin, synaptopodin and actin.
# [1] = tested on: rats chronically infused with ouabain (OS rats); test: Systolic blood pressure by tail-cuff plethysmography in ouabain-infused (OS) rats; assay type: in vivo, rat
# Protocol: (§1) To test the activity of the compound of the invention for the prevention of proteinuria and loss of renal glomerular proteins, rats chronically infused with ouabain (OS rats) or saline (Control rats) were utilized.
# (§2) Two groups of 2-month-old OS rats (n=8 each) were orally treated by gavage with vehicle (Methocel 0.5%) or Rostafuroxin (100 μg/kg) for 8 weeks. One group of saline infused rats was used as control. After this period, systolic blood pressure and urinary protein excretion was measured in the three groups. The animals of the three groups were then sacrificed for nephrin quantification from renal cortex microsomes by Western blotting.
# Three week-old male Sprague-Dawley rats (Harlan, Ind.), weighing 100-110 g, were subcutaneously implanted with osmotic mini-pumps, releasing either 15 μg/kg/day of ouabain (OS rats, n=16) for 14 weeks or sterile saline (CS rats, n=8) (Ferrari P. et al. J. Pharmacol Exp. Ther. 1998; 285: 83-94). At the 6th week of ouabain infusion, OS rats were randomly assigned to two groups (n=8 each): the first (OS treated) received Rostafuroxin orally at 100 μg/kg/day, suspended in 0.5% w/v Methocel, and the second group (controls) only vehicle. Systolic blood pressure (SBP) and heart rate (HR) were measured weekly in conscious rats by tail-cuff plethysmography (BP recorder, U. Basile, Italy).
# [2] = tested on: rats chronically infused with ouabain (OS rats); test: Total urinary protein excretion in ouabain-infused (OS) rats; assay type: in vivo, rat
# Protocol: as §1, §2
# (§3) Three week-old male Sprague-Dawley rats (Harlan, Ind.), weighing 100-110 g, were subcutaneously implanted with osmotic mini-pumps, releasing either 15 μg/kg/day of ouabain (OS rats, n=16) for 14 weeks or sterile saline (CS rats, n=8) (Ferrari P. et al. J. Pharmacol Exp. Ther. 1998; 285: 83-94). […] Systolic blood pressure (SBP) and heart rate (HR) were measured weekly in conscious rats by tail-cuff plethysmography (BP recorder, U. Basile, Italy).
# (§4) Urinary parameters were measured in conscious OS and control rats at the 12th week of treatment. […] After centrifugation (4500 rpm for 20 min; Varifuge 3.2 RS, Haereus Instruments, AHSI, Milan, Italy), rat urines were analyzed for the urinary volume (ml), quantified by weighing the urinary reservoir on a precision Mettler balance; urinary pH (pHM83, Radiometer, Copenhagen) and total urinary protein excretion (mg/24 h), measured with a standard total protein Kit (Sentinel Diagnostics, Milan, Italy). The animals of the three groups were then sacrificed, renal cortical microsomes were prepared from each rat and nephrin, the key protein of the slit diaphragm membrane, was quantified by Western blotting. […] Nephrin quantification is expressed as optical density, arbitrary units.
# [3] = tested on: rats chronically infused with ouabain (OS rats); test: Nephrin quantification from renal cortex microsomes of OS rats by Western blotting; assay type: in vivo, rat
# Protocol: as §1, §2, §3, §4
# [4] = NB + Rostafuroxin 10^-9M vs NB controls
# [5] = NB podocytes, 5 days with Rostafuroxin 10^-9M, individual samples/replicates
# [6] = NB podocytes, 5 days with Rostafuroxin 10^-9M, mean ± sem
# [7] = OS rats orally treated for 8 weeks with Rostafuroxin 100 μg/kg/day, FIG. 6
smiles,measurement,setting,value
C[C@]12CC[C@H](O)C[C@H]1CC[C@@H]1[C@@H]2CC[C@]2(C)[C@@](O)(c3ccoc3)CC[C@]12O [Rostafuroxin],"Actin, % vs. Ctrl.",Podocytes from NB rats; [4],ns
same,"Nephrin, % vs. Ctrl.",Podocytes from NB rats; [4],+34%
same,"Podocin, % vs. Ctrl.",Podocytes from NB rats; [4],+60%
same,"Synaptopodin, % vs. Ctrl.",Podocytes from NB rats; [4],+143%
same,"ZO-1, % vs. Ctrl.",Podocytes from NB rats; [4],+86%
same,"α-Adducin, % vs. Ctrl.",Podocytes from NB rats; [4],+95%
same,"amounts of Nephrin, ZO-1, Podocin, α-Adducin and Synaptopodin (in words)","Podocytes from NB rats; NB podocytes cultured 5 days with 10^-9M Rostafuroxin, FIG. 5",increased
same,"Synaptopodin, optical density","Podocytes from NB rats; NB podocytes, 5 days with Rostafuroxin 10^-9M, individual samples",2.7 arbitrary units and 2.51 arbitrary units and 4.29 arbitrary units and 1.43 arbitrary units and 2.56 arbitrary units
same,"Actin, optical density",Podocytes from NB rats; [5],130.5 arbitrary units and 115 arbitrary units and 87.5 arbitrary units and 140.4 arbitrary units and 111 arbitrary units and 98 arbitrary units and 98.2 arbitrary units and 81.2 arbitrary units and 86.2 arbitrary units and 101.2 arbitrary units and 101 arbitrary units and 144.2 arbitrary units and 87.7 arbitrary units and 108 arbitrary units and 103 arbitrary units and 91.6 arbitrary units
same,Nephrin optical density,Podocytes from NB rats; [5],24.53 arbitrary units and 27.06 arbitrary units
same,"Podocin, optical density",Podocytes from NB rats; [5],23.4 arbitrary units and 49.06 arbitrary units and 13.3 arbitrary units and 19.07 arbitrary units and 16.81 arbitrary units and 18.63 arbitrary units and 21.42 arbitrary units and 18.78 arbitrary units and 23.84 arbitrary units and 36.51 arbitrary units and 21.23 arbitrary units and 23.65 arbitrary units and 27.62 arbitrary units
same,"ZO-1, optical density",Podocytes from NB rats; [5],6.38 arbitrary units and 7.5 arbitrary units and 8.73 arbitrary units and 13.33 arbitrary units and 15.79 arbitrary units and 11.67 arbitrary units and 16.05 arbitrary units and 19.98 arbitrary units and 12.78 arbitrary units and 19.06 arbitrary units and 20.13 arbitrary units and 17.3 arbitrary units and 17.8 arbitrary units
same,"α-Adducin, optical density",Podocytes from NB rats; [5],22.23 arbitrary units and 6.06 arbitrary units and 5.70 arbitrary units and 6.77 arbitrary units and 8.06 arbitrary units and 7.53 arbitrary units and 9.33 arbitrary units and 7.07 arbitrary units
same,"Nephrin, optical density, mean","Podocytes from NB rats; NB podocytes, 5 days with Rostafuroxin 10^-9M, mean",25.8 arbitrary units
same,"Actin, optical density, mean ± sem",Podocytes from NB rats; [6],105.3 ± 4.75 arbitrary units
same,"Podocin, optical density, mean ± sem",Podocytes from NB rats; [6],24.13 ± 2.6 arbitrary units
same,"Synaptopodin, optical density, mean ± sem",Podocytes from NB rats; [6],2.70 ± 0.45 arbitrary units
same,"ZO-1, optical density, mean ± sem",Podocytes from NB rats; [6],14.36 ± 1.3 arbitrary units
same,"α-Adducin, optical density, mean ± sem",Podocytes from NB rats; [6],9.09 ± 1.9 arbitrary units
same,systolic blood pressure (SBP) (in words),[1]; [7],significantly reduced
same,Systolic blood Pressure,"[1]; OS rats, 100 μg/kg os Rostafuroxin for 8 weeks, individual rats",155 mmHg (3×) and 145 mmHg (2×) and 150 mmHg (2×) and 135 mmHg
same,"Systolic blood Pressure, mean ± sem","[1]; OS rats, 100 μg/kg os Rostafuroxin for 8 weeks, n = 8","148.8 ± 2.5, n = 8 mmHg"
same,urinary protein excretion (in words),[2]; [7],significantly reduced
same,Proteinuria,"[2]; OS rats, 100 μg/kg os Rostafuroxin, 24-hours urine, individual rats",55.34 mg/24 h and 29.02 mg/24 h and 39.7 mg/24 h and 40.68 mg/24 h and 20.85 mg/24 h and 48.88 mg/24 h and 53.07 mg/24 h and 20.14 mg/24 h
same,"Proteinuria, mean ± sem","[2]; OS rats, 100 μg/kg os Rostafuroxin, 24-hours urine, n = 8","38.5 ± 4.9, n = 8 mg/24 h"
same,Nephrin expression from renal cortex (in words),[3]; [7],increased
same,Nephrin optical density,"[3]; OS rats, 100 μg/kg os Rostafuroxin for 8 weeks, renal cortex microsomes, individual rats",51.4 arbitrary units and 50.8 arbitrary units and 76.1 arbitrary units and 57.4 arbitrary units and 48.8 arbitrary units and 53.8 arbitrary units and 64.7 arbitrary units and 54.8 arbitrary units
same,"Nephrin optical density, mean ± sem","[3]; OS rats, 100 μg/kg os Rostafuroxin for 8 weeks, renal cortex microsomes, n = 8","57.3 ± 3.1, n = 8 arbitrary units"
